Experimental data published in patent US20210246115A1 (Bioimics AB, priority 2017, published 2021).
Counter-ions that a name gives are not always drawn.

What was measured:
[1] = tested on: E. coli RNase P RNA, M1 RNA; assay: Inhibition of bacterial RNase P activity, IC50 determination (cleavage of pATSerUG by M1 RNA); assay type: biochemical; settings: NI: No inhibition
[2] = tested on: Escherichia coli (ATCC25922); assay: MIC, broth microdilution (CLSI), Escherichia coli; settings: Escherichia coli, ATCC25922, read-out: E. coli ATCC 25922 MIC, Table XIII
Experimental: Initial minimal inhibitory concentration (MIC) tests were made on two bacterial strains: • Escherichia coli (ATCC25922) • Staphylococcus aureus (ATCC25923).
MIC values were determined using the standard broth microdilution procedure based on the guidelines by the Clinical and Laboratory Standards Institute (CLSI). Briefly, the compounds were dissolved in DMSO to 10 mM. They were diluted in cation-adjusted Mueller-Hinton broth (CAMHB) to four times the highest concentration tested. A serial two-fold dilution in CAMHB was done in microdilution plates. The inoculum of bacterial strain to be tested was prepared by making a suspension of colonies from an 18 to 24 hours old plate in CAMHB. The inoculum was diluted so that, after inoculation, each well contained approximately 5×10^5 CFU/mL. To a volume of 50 μl compound in CA 3 an equal volume of inoculum was added. The tray was sealed in a plastic bag and incubated at 35° C. for 16 to 20 hours. To aid in the detection of growth the dye resazurin was added to a final concentration 0.001% and incubated at room temperature for 1 h. Reduction of resazurin, and therefore bacterial growth, was seen as a change from blue to pink.

[3] = tested on: Staphylococcus aureus (ATCC25923); assay: MIC, broth microdilution (CLSI), Staphylococcus aureus ATCC25923; settings: Staphylococcus aureus, ATCC25923, read-out: S. aureus ATCC 25923 MIC

Compound: Cc1ccccc1-c1ccc2c(c1)c(CCN[C@H]1CC[C@H](N)CC1)cn2CC1CCCCC1 [Compound 244, (1R,4R)-N1-(2-(1-(cyclohexylmethyl)-5-(o-tolyl)-1H-indol-3-yl)ethyl)cyclohexane-1,4-diamine hydrochloride salt]
- IC50 [1]: 14.7 µM
- MIC [2]: 2 µg/mL
- MIC [3]: 2 µg/mL

Compound: Cl.O=C(CCc1cn(CC2CCCCC2)c2ccccc12)NC1CCNCC1 [Compound 115, 3-(1-(cyclohexylmethyl)-1H-indol-3-yl)-N-(piperidin-4-yl)propanamide hydrochloride salt]
- IC50 [1]: 145 µM
- MIC [2]: 128 µg/mL
- MIC [3]: 128 µg/mL

Compound: Cc1cccc(C(CC(=O)NC2CCCC(N)C2)c2cn(CC3CCCCC3)c3ccccc23)c1.Cl (stereo not drawn) [Compound 178, N-(3-aminocyclohexyl)-3-(1-(cyclohexylmethyl)-1H-indol-3-yl)-3-(m-tolyl)propanamide hydrochloride salt]
- IC50 [1]: 20 µM
- MIC [2]: 65 µg/mL
- MIC [3]: 8 µg/mL

Compound: Cl.O=C(CCc1cn(CC2CCC(F)(F)CC2)c2ccc(Br)cc12)NC1CCNCC1 [Compound 286, 3-(5-bromo-1-((4,4-difluorocyclohexyl)methyl)-1H-indol-3-yl)-N-(piperidin-4-yl)propanamide hydrochloride salt]
- IC50 [1]: 164 µM
- MIC [2]: 133 µg/mL
- MIC [3]: 66 µg/mL

Compound: Cc1ccc(C(CC(=O)NC2CCC(N)CC2)c2cn(CC3CCCCC3)c3ccccc23)cc1.Cl [Compound 140, N-((1S,4S)-4-aminocyclohexyl)-3-(1-(cyclohexylmethyl)-1H-indol-3-yl)-3-(p-tolyl)propanamide hydrochloride salt]
- IC50 [1]: 34 µM
- MIC [2]: 64 µg/mL
- MIC [3]: 8 µg/mL

Compound: Cc1cccc(-c2ccc3c(c2)c(CCCN[C@H]2CC[C@H](N)CC2)cn3CC2CCCCC2)c1 [Compound 207, (1R,4R)-N1-(3-(1-(cyclohexylmethyl)-5-(m-tolyl)-1H-indol-3-yl)propyl)cyclohexane-1,4-diamine hydrochloride salt]
- IC50 [1]: 17 µM
- MIC [2]: 4 µg/mL
- MIC [3]: 4 µg/mL

Compound: Cl.N[C@H]1CC[C@H](NC(=O)CC(c2cn(CC3CCCCC3)c3ccccc23)C2CCOCC2)CC1 (stereo partly drawn) [Compound 132, N-((1R,4R)-4-aminocyclohexyl)-3-(1-(cyclohexylmethyl)-1H-indol-3-yl)-3-(tetrahydro-2H-pyran-4-yl)propanamide hydrochloride salt]
- IC50 [1]: 191 µM
- MIC [2]: > 512 µg/mL
- MIC [3]: 128 µg/mL

Compound: Cc1cccc(C(CC(=O)NC2CCNCC2)c2cn(CC3CCC(F)(F)CC3)c3ccc(Br)cc23)c1.Cl (stereo not drawn) [Compound 287, 3-(5-bromo-1-((4,4-difluorocyclohexyl)methyl)-1H-indol-3-yl)-N-(piperidin-4-yl)-3-(m-tolyl)propanamide hydrochloride salt]
- IC50 [1]: 15 µM
- MIC [2]: 78 µg/mL
- MIC [3]: 10 µg/mL

Compound: Cc1cccc(C(CC(=O)NCCC2CCNCC2)c2cn(CCC3CCCCC3)c3ccccc23)c1.Cl (stereo not drawn) [Compound 110, 3-(1-(2-cyclohexylethyl)-1H-indol-3-yl)-N-(2-(piperidin-4-yl)ethyl)-3-(m-tolyl)propanamide hydrochloride salt]
- IC50 [1]: 5.6 µM
- MIC [2]: 64 µg/mL
- MIC [3]: 4 µg/mL

Compound: Cc1cccc(C(CC(=O)N[C@H]2CC[C@H](N)CC2)c2cn(CC3CCCCC3)c3ccc(-c4ccccc4)cc23)c1.Cl (stereo partly drawn) [Compound 153, N-((1R,4R)-4-aminocyclohexyl)-3-(1-(cyclohexylmethyl)-5-phenyl-1H-indol-3-yl)-3-(m-tolyl)propanamide hydrochloride salt]
- IC50 [1]: 41 µM
- MIC [2]: > 512 µg/mL
- MIC [3]: 64 µg/mL

Compound: Cc1cccc(C(CCNC2CCNCC2)c2cn(CC3CCOCC3)c3ccccc23)c1 (stereo not drawn) [Compound 292, N-(3-(1-((tetrahydro-2H-pyran-4-yl)methyl)-1H-indol-3-yl)-3-(m-tolyl)propyl)piperidin-4-amine hydrochloride salt]
- IC50 [1]: 130 µM
- MIC [2]: 66 µg/mL
- MIC [3]: 33 µg/mL

Compound: Cc1ccccc1C(CC(=O)NC1CCC(N)CC1)c1cn(CC2CCCCC2)c2ccccc12.Cl [Compound 149, N-((1S,4S)-4-aminocyclohexyl)-3-(1-(cyclohexylmethyl)-1H-indol-3-yl)-3-(o-tolyl)propanamide hydrochloride salt]
- IC50 [1]: 13 µM
- MIC [2]: > 512 µg/mL
- MIC [3]: 16 µg/mL

Compound: Cl.N[C@H]1CC[C@H](NCCC(c2cn(CC3CCCCC3)c3ccccc23)C2CCCCC2)CC1 (stereo partly drawn) [Compound 204, (1rR4R)-N1-(3-cyclohexyl-3-(1-(cyclohexylmethyl)-1H-indol-3-yl)propyl) cyclohexane-1,4-diamine hydrochloride salt]
- IC50 [1]: 50 µM
- MIC [2]: 4 µg/mL
- MIC [3]: 2 µg/mL

Compound: Cc1cccc(C(CC(=O)NC[C@H]2CC[C@H](CN)CC2)c2cn(CC3CCCCC3)c3ccccc23)c1.Cl (stereo partly drawn) [Compound 166, N-(((1S,4S)-4-(aminomethyl)cyclohexyl)methyl)-3-(1-(cyclohexylmethyl)-1H-indol-3-yl)-3-(m-tolyl)propanamide hydrochloride salt]
- IC50 [1]: 7 µM
- MIC [2]: 275 µg/mL
- MIC [3]: 9 µg/mL

Compound: COc1cccc(C(CC(=O)NC2CCC(N)CC2)c2cn(CC3CCCCC3)c3ccccc23)c1.Cl [Compound 160, N-((1S,4S)-4-aminocyclohexyl)-3-(1-(cyclohexylmethyl)-1H-indol-3-yl)-3-(3-methoxyphenyl) propanamide hydrochloride salt]
- IC50 [1]: 12 µM
- MIC [2]: 67 µg/mL
- MIC [3]: 17 µg/mL

Compound: N[C@@H](Cc1cn(CC2CCCCC2)c2ccccc12)C(=O)N[C@H]1CC[C@H](N)CC1 [Compound 264, (S)-2-amino-N-((1R,4S)-4-aminocyclohexyl)-3-(1-(cyclohexylmethyl)-1H-indol-3-yl)propanamide hydrochloride salt]
- IC50 [1]: 298 µM
- MIC [2]: > 512 µg/mL
- MIC [3]: 240 µg/mL

Compound: Cc1cccc(C(CC(=O)NCCC2CCNCC2)c2cn(Cc3ccccc3)c3ncccc23)c1.Cl (stereo not drawn) [Compound 39, 3-(1-benzyl-1H-pyrrolo[2,3-b]pyridin-3-yl)-N-(2-(piperidin-4-yl)ethyl)-3-(m-tolyl)propanamide hydrochloride salt]
- IC50 [1]: 959 µM
- MIC [2]: > 512 µg/mL
- MIC [3]: 265 µg/mL

Compound: CN(C)CCNC(=O)CC(c1cn(CC2CCCCC2)c2ccccc12)C1CCNCC1 (stereo not drawn) [Compound 108, 3-(1-(cyclohexylmethyl)-1H-indol-3-yl)-N-(2-(dimethylamino)ethyl)-3-(piperidin-4-yl) propanamide hydrochloride salt]
- IC50 [1]: 2080 µM
- MIC [2]: > 512 µg/mL
- MIC [3]: > 512 µg/mL

Compound: Cl.N[C@H]1CC[C@H](NC(=O)CC(c2cn(CC3CCCCC3)c3ccccc23)C2CCCCC2)CC1 (stereo partly drawn) [Compound 162, N-((1R,4R)-4-aminocyclohexyl)-3-cyclohexyl-3-(1-(cyclohexylmethyl)-1H-indol-3-yl)propanamide hydrochloride salt]
- IC50 [1]: 9 µM
- MIC [2]: 32 µg/mL
- MIC [3]: 4 µg/mL

Compound: Cc1cccc(C(CC(=O)N2CCC(CN)CC2)c2cn(CC3CCCCC3)c3ccccc23)c1.Cl (stereo not drawn) [Compound 167, 1-(4-(aminomethyl)piperidin-1-yl)-3-(1-(cyclohexylmethyl)-1H-indol-3-yl)-3-(m-tolyl)propan-1-one hydrochloride salt]
- IC50 [1]: 14 µM
- MIC [2]: 65 µg/mL
- MIC [3]: 8 µg/mL
